Source: publication PMC5908160, “Inhibition of sperm motility in male macaques with EP055, a potential non-hormonal male contraceptive” (PLoS ONE, 2018)

Tested on: human sperm
Assay: CASA (Computer Assisted Sperm Analysis) assay of human sperm motility
Format: cell-based
Conditions: n = 4 donors, read-out: average relative motility index (RMI) IC50
Procedure: Human semen samples were obtained from the Department of Obstetrics and Gynecology, University of North Carolina Memorial Hospital, Chapel Hill, NC. […] Semen samples were allowed to liquefy for 30 minutes and subjected to standard semen analysis to determine acceptability before freezing. All samples were stored in liquid nitrogen, and de-identified by the Department of Obstetrics and Gynecology, University of North Carolina Memorial Hospital, Chapel Hill, NC before further processing. A density gradient (Isolate catalog number 99264, Irving Scientific, Irving CA, or SpermCare catalog number 2221 and 2222, InvitroCare Inc., Frederick MD) was used to prepare spermatozoa for further analysis. At least 3 independent experiments were done per assay, each using a single donor.
Computer Assisted Sperm Analysis (CASA) was conducted as previously described. Briefly sperm were washed after the density gradient with EP buffer-0.4% BSA and resuspended in modified M16 for compound treatments. Sperm were diluted to 5 x 10^6/mL in 12x75 mm glass tubes with the appropriate treatment and incubated at 37°C in 5% CO2. […] The relative mobility index (RMI) is a measure of the effect of compound on sperm and is calculated as the VSL x %normal motility and normalized to the appropriate DMSO control.

Work on `COC(=O)NNc1nc(Nc2ccc(NC(C)=O)c(O)c2)nc(SCC(=O)O)n1` [EP055] yielded an IC50 of 200 µM.
